Results as given in publication PMC2211560 (PLoS Medicine, 2008).
“And” between values parts separate entries of the source, which are not always exact repeats. Identical values can stand only once. Like-named read-outs stand apart in the source and are kept apart here.

How the values were obtained:
mTOR = test: S6 ribosomal protein phosphorylation in tumor tissue by IHC (S2 versus S1); type: in vivo, human; conditions: ratio of median IHC staining score S2 to S1, individual patients
From the text: To quantify mTOR activity in matched S1 and S2 samples, we measured phosphorylation of S6 ribosomal protein by immunohistochemistry using two distinct phosphosite antibodies directed against Ser235/236 or Ser240/244. […] Immunohistochemistry (IHC) scoring is described in detail in Text S1.
The following antibodies were used for IHC: anti-PTEN (6H2.1, #ABM-2052, Cascade BioScience; 1:400 dilution), anti-Ki-67 (MIB-1, M7240, DakoCytomation; 1:100 Dilution), anti-phospho Ser235/236 S6 (91B2, #4857, Cell Signaling; 1:50 dilution), anti phospho Ser240/244 S6 (#2215, Cell Signaling; 1:200 dilution), anti-phospho-PRAS 40 (#44–1100G, Biosource; 1:200 dilution), anti-phospho Ser473 Akt (736E11, #3787, Cell Signaling; 1:50 dilution), anti-phospho Thr389 p70 S6 Kinase (#9205, Cell Signaling; 1:100 Dilution), and anti phospho Ser1108 eIF4G at 1:400 (#2441, Cell Signaling; 1:400 dilution). Antigen retrieval was performed using 0.01 M citrate buffer, pH 6.0 for 30 min in an oven and peroxidase activity was quenched with 3% hydrogen peroxide in water. Primary antibodies were diluted in PBS /2% bovine serum albumin/2% normal horse serum (for anti-PTEN) or TBS/0.1% Tween/5% normal goat serum (for phosphosite-specific antibodies) and applied overnight at 4 °C. Biotinylated secondary antibodies (Vector) were applied at 1:200 dilution for 45 min, and the avidin-biotin complex (Elite ABC, Vector) for 30 min. Vector NovaRed was used as the enzyme substrate to visualize specific antibody localization. […] All slides were counterstained with Harris hematoxylin.
To quantify mTOR activity, we measured phosphorylation of S6 ribosomal protein by immunohistochemistry. S6 is a direct substrate of S6 kinase 1, a downstream effector of mTOR action, and has been widely used as a pharmacodynamic readout of mTOR inhibition in preclinical studies. To ensure specificity, we used two distinct phosphosite antibodies directed against Ser235/236 or Ser240/244 (Figure 2B). Both sites are directly phosphorylated by S6 kinase 1, but Ser235/236 can also be phosphorylated by p90 ribosomal S6 kinase (RSK) and other kinases. All measurements were quantified by digital readout of 2,500–5,000 tumor cells per slide cut from paraffin-embedded tissue (Figure S1).
Supplementary file pmed.0050008.sg001.pdf: Figure S1 Digital Scoring of Immunohistochemical Stains Adjacent tissue sections from each tumor were stained with antibodies against Ki-67, phospho S6 ribosomal protein (S6RP), phospho-PRAS40, and PTEN (unpublished data). Five areas per slide, each representing approximately 500–1,000 tumor cells, were selected for digital scoring. Image conversion and scoring was performed using Soft Imaging System Software. The distribution of immunoreactivity within these 2,500–5,000 cells was graphed for each sample as a box plot. The “fold change” (F.C.) in S6 immunoreactivity (Table 2 and Figure S2) was calculated for each tumor as the ratio between median staining score in the S2 and the median staining score in the S1 sample. (135 KB PDF) Click here for additional data file.
Scoring of immunohistochemical stains. Immunohistochemical screening of tumor samples for PTEN expression was based on a manual scoring method which compares PTEN staining of tumor cells to the PTEN staining of endothelial cells within the same viewfield and assigns scores of 0 (absent in tumor cells), 1 (reduced in tumor cells relative to endothelial cells), and 2 (tumor cells staining similar to endothelial cells). Digital scores for PTEN, phospho-S6, and phospho-PRAS40 are based on absolute staining intensity of tumor cells as quantified following false-color conversion.

[1] = human, in vivo, cited from earlier work
[2] = cited from earlier work; for mucosal HERPES SIMPLEX infections, patients: phase III trial, with cyclosporine and corticosteroids, ref MacDonald et al, 2001

For `CO[C@H]1C[C@@H]2CC[C@@H](C)[C@@](O)(O2)C(=O)C(=O)N2CCCC[C@H]2C(=O)O[C@H]([C@H](C)C[C@@H]2CC[C@@H](O)[C@H](OC)C2)CC(=O)[C@H](C)/C=C(\C)[C@@H](O)[C@@H](OC)C(=O)[C@H](C)C[C@H](C)/C=C/C=C/C=C/1C` [Rapamycin], which “pS6 S2/S1 pSer235/236” value (mTOR; 2 mg oral daily) is on record?
The value was 0.46 and 1.01.

And the “pS6 S2/S1 pSer240/244” value (mTOR; 2 mg oral daily)?
Its value is 0.61 and 0.82 and 0.85.

And the “pS6 S2/S1 pSer235/236” value (mTOR; 5 mg oral daily)?
Its value is 0.91 and 0.48 and 0.22 and 0.77 and 1.16.

What about the “pS6 S2/S1 pSer240/244” value (mTOR; 5 mg oral daily) of the same molecule?
The value was 0.94 and 0.51 and 0.18 and 0.58 and 0.54.

And the “pS6 S2/S1 pSer235/236” value (mTOR; 10 mg oral daily)?
Its value is 0.78 and 0.55 and 0.19 and 0.81 and 1.50 and 0.60.

And the “pS6 S2/S1 pSer240/244” value (mTOR; 10 mg oral daily)?
Its value is 0.27 and 0.58 and 0.44 and 0.60 and 0.56 and 0.91.

What about the Vdss ([1]; iv) of the same molecule?
The Vdss was 1.1 to 1.3 L/kg.

And the half-life [1]?
The half-life was 40 to 60 h.

And the “ANEMIA, patients” value ([2]; human, in vivo)?
Its value is 27-37%.

What about the ARTHRALGIA ([2]; human, in vivo) of the same molecule?
The ARTHRALGIA was 25-31%.

What about the CONSTIPATION ([2]; human, in vivo) of the same molecule?
Its CONSTIPATION is 28-36%.

And the DIARRHEA ([2]; human, in vivo)?
The DIARRHEA was 25-42%.

What about the DYSPEPSIA ([2]; human, in vivo) of the same molecule?
The DYSPEPSIA was 17-25%.

What about the “DYSPNEA, patients” value ([2]; human, in vivo) of the same molecule?
Its value is 22-30%.

And the “EPISTAXIS, patients” value ([2]; human, in vivo)?
The value was 9%.

And the “HEADACHE, patients” value ([2]; human, in vivo)?
Its value is 23-34%.

What about the “HYPERTENSION, patients” value ([2]; human, in vivo) of the same molecule?
The value was 43-45%.

What about the “HYPOKALEMIA, patients” value ([2]; human, in vivo) of the same molecule?
The value was 11-21%.

And the “HYPOPHOSPHATEMIA, patients” value ([2]; human, in vivo)?
Its value is 15-23%.

And the Hyperlipidemia ([2]; human, in vivo)?
The Hyperlipidemia was 38-57%.

And the NAUSEA ([2]; human, in vivo)?
Its NAUSEA is 25-36%.

What about the “Normalization of platelet counts after discontinuation” value ([2]; human, in vivo) of the same molecule?
The value was no more than 2 weeks.

What about the “Peripheral EDEMA, patients” value ([2]; human, in vivo) of the same molecule?
Its value is 54-64%.

What about the “Posttransplant lymphoproliferative disease (PTLD)” value ([2]; human, in vivo) of the same molecule?
Its value is 0.8%.

And the “THROMBOCYTOPENIA, patients” value ([2]; human, in vivo)?
The value was 13-30%.

What about the VOMITING ([2]; human, in vivo) of the same molecule?
The VOMITING was 19-25%.

What about the “arthralgia, patients” value ([2]; human, in vivo) of the same molecule?
The value was 23%.

And the hypercholesterolemia ([2]; human, in vivo)?
Its hypercholesterolemia is 38-46%.

What about the “insomnia, patients” value ([2]; human, in vivo) of the same molecule?
Its value is 13-22%.

And the “patients with triglyceride levels exceeding 5 mmol/L” value ([2]; human, in vivo)?
Its value is 75%.

And the “total cholesterol mean peak” value ([2]; human, in vivo)?
The value was 12 mmol/L.

What about the “tremor, patients” value ([2]; human, in vivo) of the same molecule?
Its value is 21-31%.

And the “mucosal HERPES SIMPLEX infections, patients” value ([2]; sirolimus 2 mg/day)?
Its value is 10%.

And the “mucosal HERPES SIMPLEX infections, patients” value ([2]; sirolimus 5 milligrams (mg)/day)?
Its value is 19%.
